From paper PMC4685510, “A Cell Biologist’s Field Guide to Aurora Kinase Inhibitors” (Frontiers in Oncology, 2015)

What was measured:
Assay in all cases: biochemical
Type in all cases: biochemical
[1] = molecular target: 363 human kinases (including Aurora A/B/C) (Homo sapiens, UniProt O75914); conditions: PAK3; for remaining activity at 0.1 µM: 100 nM; for remaining activity at 0.1 µM / remaining activity at 0.5 µM: read-out: % Enzyme Activity (relative to DMSO controls)
Description: (§1) However, the Aurora A/B selectivity ratios derived from our in vitro and in vivo data can be compared to prioritize inhibitors.

[2] = molecular target: T1, 363 human kinases (including Aurora A/B/C) (Homo sapiens, UniProt P21709); conditions: EPHA1, [ATP] 20 µM; for remaining activity at 0.1 µM: 100 nM; for remaining activity at 0.1 µM / remaining activity at 0.5 µM: read-out: % Enzyme Activity (relative to DMSO controls)
T1 sequence (P21709 26-976): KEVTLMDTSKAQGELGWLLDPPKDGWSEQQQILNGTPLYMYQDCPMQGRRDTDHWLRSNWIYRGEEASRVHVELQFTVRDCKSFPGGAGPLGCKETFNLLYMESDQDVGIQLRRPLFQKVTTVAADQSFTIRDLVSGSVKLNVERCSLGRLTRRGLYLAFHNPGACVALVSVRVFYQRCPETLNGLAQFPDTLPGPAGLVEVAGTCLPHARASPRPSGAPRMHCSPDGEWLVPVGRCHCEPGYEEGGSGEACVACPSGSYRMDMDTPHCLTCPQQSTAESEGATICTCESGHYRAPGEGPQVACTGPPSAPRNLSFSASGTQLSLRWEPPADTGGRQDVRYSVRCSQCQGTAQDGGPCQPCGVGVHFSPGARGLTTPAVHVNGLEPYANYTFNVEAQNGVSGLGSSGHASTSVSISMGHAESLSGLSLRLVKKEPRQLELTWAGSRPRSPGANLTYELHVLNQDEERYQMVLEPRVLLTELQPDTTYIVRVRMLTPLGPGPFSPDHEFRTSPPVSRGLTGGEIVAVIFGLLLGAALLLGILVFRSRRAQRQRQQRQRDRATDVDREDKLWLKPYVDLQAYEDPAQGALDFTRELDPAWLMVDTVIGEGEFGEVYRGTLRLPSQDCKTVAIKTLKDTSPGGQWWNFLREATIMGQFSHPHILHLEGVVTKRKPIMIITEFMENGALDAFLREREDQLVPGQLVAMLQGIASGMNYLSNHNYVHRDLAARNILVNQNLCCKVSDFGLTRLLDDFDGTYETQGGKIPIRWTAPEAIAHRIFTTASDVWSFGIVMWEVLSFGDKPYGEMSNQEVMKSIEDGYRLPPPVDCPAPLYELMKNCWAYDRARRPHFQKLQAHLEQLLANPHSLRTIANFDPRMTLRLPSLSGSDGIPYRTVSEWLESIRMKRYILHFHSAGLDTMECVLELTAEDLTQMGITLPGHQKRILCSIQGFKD
Description: as §1

[3] = molecular target: 363 human kinases (including Aurora A/B/C) (Homo sapiens, UniProt P35968); conditions: KDR/VEGFR2; for remaining activity at 0.1 µM: 100 nM; for remaining activity at 0.1 µM / remaining activity at 0.5 µM: read-out: % Enzyme Activity (relative to DMSO controls)
Description: as §1

[4] = molecular target: 363 human kinases (including Aurora A/B/C) (Homo sapiens, UniProt P49761); conditions: CLK3, [ATP] 10 µM; for remaining activity at 0.1 µM: 100 nM; for remaining activity at 0.1 µM / remaining activity at 0.5 µM: read-out: % Enzyme Activity (relative to DMSO controls)
Description: as §1

[5] = molecular target: T2, 363 human kinases (including Aurora A/B/C) (Homo sapiens, UniProt Q04771); conditions: ALK2/ACVR1, [ATP] 20 µM; for remaining activity at 0.1 µM: 100 nM; for remaining activity at 0.1 µM / remaining activity at 0.5 µM: read-out: % Enzyme Activity (relative to DMSO controls)
T2 sequence (Q04771 21-509): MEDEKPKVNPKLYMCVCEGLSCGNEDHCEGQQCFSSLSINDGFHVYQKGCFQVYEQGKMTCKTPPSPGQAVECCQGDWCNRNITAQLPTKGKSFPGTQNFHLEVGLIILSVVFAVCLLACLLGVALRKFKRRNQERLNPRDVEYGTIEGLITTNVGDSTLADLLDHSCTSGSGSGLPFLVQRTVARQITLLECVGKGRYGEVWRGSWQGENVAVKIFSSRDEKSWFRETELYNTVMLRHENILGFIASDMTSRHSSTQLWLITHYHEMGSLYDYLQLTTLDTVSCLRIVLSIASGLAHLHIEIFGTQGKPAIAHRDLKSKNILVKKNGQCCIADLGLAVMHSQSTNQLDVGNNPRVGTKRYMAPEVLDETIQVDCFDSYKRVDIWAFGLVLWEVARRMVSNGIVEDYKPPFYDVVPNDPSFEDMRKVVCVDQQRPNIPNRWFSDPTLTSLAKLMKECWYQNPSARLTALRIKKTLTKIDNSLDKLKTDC
Description: as §1

[6] = molecular target: T3, 363 human kinases (including Aurora A/B/C) (Homo sapiens, UniProt Q08881); conditions: ITK; for remaining activity at 0.1 µM: 100 nM; for remaining activity at 0.1 µM / remaining activity at 0.5 µM: read-out: % Enzyme Activity (relative to DMSO controls)
T3 sequence (Q08881 1-620): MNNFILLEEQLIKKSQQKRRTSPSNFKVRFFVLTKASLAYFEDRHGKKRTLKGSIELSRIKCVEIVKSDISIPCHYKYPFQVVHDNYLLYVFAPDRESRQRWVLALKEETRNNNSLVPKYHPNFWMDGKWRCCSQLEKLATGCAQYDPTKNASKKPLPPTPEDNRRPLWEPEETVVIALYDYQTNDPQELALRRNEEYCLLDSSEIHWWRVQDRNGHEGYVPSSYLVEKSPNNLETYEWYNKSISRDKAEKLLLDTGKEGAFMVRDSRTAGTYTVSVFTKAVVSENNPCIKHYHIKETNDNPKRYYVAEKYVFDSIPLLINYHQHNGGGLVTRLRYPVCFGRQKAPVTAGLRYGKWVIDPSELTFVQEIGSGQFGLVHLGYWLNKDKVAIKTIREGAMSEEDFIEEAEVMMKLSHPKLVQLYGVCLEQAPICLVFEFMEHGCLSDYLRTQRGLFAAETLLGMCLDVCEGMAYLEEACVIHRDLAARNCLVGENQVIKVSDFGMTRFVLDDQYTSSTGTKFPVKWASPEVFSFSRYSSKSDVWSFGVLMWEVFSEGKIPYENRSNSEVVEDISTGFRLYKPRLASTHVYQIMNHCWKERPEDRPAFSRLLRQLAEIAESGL
Description: as §1

[7] = molecular target: 363 human kinases (including Aurora A/B/C) (Homo sapiens, UniProt Q15208); conditions: STK38/NDR1; for remaining activity at 0.1 µM: 100 nM; for remaining activity at 0.1 µM / remaining activity at 0.5 µM: read-out: % Enzyme Activity (relative to DMSO controls)
Description: as §1

[8] = molecular target: 363 human kinases (including Aurora A/B/C) (Homo sapiens, UniProt Q8N568); conditions: DCAMKL2, [ATP] 100 µM; for remaining activity at 0.1 µM: 100 nM; for remaining activity at 0.1 µM / remaining activity at 0.5 µM: read-out: % Enzyme Activity (relative to DMSO controls)
363 human kinases (including Aurora A/B/C) (Homo sapiens, UniProt Q8N568), sequence (Q8N568 whole entry): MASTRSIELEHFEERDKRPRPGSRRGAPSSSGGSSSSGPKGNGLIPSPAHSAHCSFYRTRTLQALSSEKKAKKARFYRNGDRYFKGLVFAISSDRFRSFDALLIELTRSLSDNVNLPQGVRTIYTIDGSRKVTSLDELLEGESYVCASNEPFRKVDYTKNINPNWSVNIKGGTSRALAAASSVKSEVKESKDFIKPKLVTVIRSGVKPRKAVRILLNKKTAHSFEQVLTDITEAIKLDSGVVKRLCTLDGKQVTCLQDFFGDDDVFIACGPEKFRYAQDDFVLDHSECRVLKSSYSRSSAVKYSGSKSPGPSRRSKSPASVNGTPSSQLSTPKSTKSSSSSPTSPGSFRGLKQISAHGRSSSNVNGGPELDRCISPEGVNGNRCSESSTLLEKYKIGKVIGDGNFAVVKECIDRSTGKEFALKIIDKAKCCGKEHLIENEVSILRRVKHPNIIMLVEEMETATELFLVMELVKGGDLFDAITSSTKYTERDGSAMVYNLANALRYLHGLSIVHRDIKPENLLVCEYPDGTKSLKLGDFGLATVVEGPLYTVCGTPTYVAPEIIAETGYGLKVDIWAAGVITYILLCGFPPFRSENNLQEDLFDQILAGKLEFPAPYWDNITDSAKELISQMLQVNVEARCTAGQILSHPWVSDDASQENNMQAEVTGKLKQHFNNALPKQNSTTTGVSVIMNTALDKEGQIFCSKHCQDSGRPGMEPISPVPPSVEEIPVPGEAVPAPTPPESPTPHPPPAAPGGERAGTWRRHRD
Description: as §1

363 human kinases (including Aurora A/B/C) (Homo sapiens, UniProt Q15208), sequence (Q15208 whole entry): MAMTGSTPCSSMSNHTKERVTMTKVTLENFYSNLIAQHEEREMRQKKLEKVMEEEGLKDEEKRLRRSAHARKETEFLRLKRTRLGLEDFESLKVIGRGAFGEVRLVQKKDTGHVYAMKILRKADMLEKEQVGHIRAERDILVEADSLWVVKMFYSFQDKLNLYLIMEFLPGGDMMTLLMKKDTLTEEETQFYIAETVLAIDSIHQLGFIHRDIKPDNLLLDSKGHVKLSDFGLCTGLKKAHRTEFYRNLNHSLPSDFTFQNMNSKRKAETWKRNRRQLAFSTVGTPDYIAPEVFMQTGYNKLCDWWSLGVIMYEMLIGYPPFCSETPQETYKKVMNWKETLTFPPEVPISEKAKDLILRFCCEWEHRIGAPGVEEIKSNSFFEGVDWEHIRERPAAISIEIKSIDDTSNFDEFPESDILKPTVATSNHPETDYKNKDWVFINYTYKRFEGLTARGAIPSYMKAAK
363 human kinases (including Aurora A/B/C) (Homo sapiens, UniProt O75914), sequence (O75914 whole entry): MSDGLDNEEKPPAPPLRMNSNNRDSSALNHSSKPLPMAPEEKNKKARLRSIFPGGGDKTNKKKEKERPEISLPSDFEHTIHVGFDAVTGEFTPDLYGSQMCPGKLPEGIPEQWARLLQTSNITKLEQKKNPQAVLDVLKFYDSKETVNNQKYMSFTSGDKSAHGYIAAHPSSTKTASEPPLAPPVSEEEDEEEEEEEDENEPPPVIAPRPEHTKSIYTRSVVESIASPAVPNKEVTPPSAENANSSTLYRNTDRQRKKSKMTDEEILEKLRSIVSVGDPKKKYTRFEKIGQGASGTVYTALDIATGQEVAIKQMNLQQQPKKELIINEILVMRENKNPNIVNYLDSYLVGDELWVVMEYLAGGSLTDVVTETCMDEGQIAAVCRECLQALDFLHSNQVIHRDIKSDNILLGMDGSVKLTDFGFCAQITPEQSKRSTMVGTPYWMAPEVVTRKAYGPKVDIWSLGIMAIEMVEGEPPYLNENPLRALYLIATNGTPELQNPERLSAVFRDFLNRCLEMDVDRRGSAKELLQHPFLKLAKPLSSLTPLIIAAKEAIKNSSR
363 human kinases (including Aurora A/B/C) (Homo sapiens, UniProt P35968), sequence (P35968 20-1356): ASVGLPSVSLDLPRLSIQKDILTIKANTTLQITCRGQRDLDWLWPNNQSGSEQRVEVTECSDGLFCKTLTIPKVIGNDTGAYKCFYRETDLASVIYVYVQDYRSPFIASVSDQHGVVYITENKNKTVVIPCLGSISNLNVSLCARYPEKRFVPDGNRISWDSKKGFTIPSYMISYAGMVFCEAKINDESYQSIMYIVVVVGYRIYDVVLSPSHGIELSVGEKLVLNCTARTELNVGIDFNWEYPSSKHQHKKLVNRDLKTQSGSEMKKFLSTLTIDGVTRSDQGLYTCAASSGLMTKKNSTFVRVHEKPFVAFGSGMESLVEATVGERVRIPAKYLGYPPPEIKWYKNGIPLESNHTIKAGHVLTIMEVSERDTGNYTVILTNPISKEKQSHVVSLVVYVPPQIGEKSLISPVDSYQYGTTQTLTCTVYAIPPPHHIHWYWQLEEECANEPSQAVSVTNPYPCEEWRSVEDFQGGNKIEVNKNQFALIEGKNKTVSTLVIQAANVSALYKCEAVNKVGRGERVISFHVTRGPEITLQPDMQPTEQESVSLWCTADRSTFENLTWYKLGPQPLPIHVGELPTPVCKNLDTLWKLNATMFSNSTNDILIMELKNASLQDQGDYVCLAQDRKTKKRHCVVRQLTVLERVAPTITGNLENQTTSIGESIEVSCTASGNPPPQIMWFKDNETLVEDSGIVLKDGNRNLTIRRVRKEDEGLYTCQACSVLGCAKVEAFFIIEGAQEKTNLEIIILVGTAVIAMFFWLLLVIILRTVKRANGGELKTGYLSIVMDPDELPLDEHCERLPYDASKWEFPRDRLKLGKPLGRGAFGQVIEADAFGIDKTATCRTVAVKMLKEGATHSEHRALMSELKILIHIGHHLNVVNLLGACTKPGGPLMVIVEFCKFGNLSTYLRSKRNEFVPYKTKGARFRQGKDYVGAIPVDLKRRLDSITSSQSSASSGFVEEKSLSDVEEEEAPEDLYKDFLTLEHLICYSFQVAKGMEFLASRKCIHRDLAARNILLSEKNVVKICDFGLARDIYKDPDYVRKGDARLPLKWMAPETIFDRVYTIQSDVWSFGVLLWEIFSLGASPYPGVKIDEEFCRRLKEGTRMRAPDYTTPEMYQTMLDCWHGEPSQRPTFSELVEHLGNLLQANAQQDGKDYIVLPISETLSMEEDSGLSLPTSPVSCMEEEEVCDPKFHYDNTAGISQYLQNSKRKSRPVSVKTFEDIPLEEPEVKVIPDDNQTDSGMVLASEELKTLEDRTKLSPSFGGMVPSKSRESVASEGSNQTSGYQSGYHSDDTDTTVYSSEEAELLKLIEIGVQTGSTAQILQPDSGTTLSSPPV
363 human kinases (including Aurora A/B/C) (Homo sapiens, UniProt P49761), sequence (P49761 whole entry): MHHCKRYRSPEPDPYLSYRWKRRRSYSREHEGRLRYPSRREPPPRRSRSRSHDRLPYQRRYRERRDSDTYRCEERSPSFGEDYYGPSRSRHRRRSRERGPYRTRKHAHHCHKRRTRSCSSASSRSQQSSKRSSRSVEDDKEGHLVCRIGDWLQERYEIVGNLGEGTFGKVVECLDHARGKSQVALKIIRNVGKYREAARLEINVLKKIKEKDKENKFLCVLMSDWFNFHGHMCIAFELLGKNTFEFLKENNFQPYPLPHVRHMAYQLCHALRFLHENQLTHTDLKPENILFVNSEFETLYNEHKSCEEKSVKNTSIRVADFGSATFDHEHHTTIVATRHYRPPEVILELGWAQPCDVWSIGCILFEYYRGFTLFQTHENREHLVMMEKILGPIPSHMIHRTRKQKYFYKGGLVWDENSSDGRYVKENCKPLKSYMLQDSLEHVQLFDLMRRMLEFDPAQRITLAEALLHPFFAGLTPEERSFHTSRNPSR

Structure (SMILES)	remaining activity at 0.1 µM [1] [%]	remaining activity at 0.1 µM [2] [%]	remaining activity at 0.1 µM [3] [%]	remaining activity at 0.1 µM [4] [%]	remaining activity at 0.1 µM [5] [%]	remaining activity at 0.1 µM [6] [%]	remaining activity at 0.1 µM [7] [%]	remaining activity at 0.1 µM [8] [%]	remaining activity at 0.5 µM ([1]; 500 nM) [%]	remaining activity at 0.5 µM ([2]; 500 nM) [%]	remaining activity at 0.5 µM ([3]; 500 nM) [%]	remaining activity at 0.5 µM ([4]; 500 nM) [%]	remaining activity at 0.5 µM ([5]; 500 nM) [%]	remaining activity at 0.5 µM ([6]; 500 nM) [%]	remaining activity at 0.5 µM ([7]; 500 nM) [%]	remaining activity at 0.5 µM ([8]; 500 nM) [%]	further results
CCn1cc(-c2ccnc3[nH]c(-c4cccc(CN(C)C)c4)cc23)c(-c2ccc(NC(=O)N(C)C)cc2)n1 [GSK1070916]	92.5	85.1	87.5	83.4	130	77.7	88	91.5									
O=C(O)[C@]1(Cc2cccc(Nc3nccs3)n2)CC[C@@H](Oc2cccc(Cl)c2F)CC1 [MK-5108]	92.3	47.6	36.8	97.5	116	89	96	98.2	88.8	19.1	13.1	71.5	34.5	46.3	86.5	96.3	
O=C(c1cccc(Cl)c1F)N1CCN(Cc2cccc(Nc3nccs3)n2)CC1 [MK-8745]									94	58.3	96.7	82.7	146	104	91.2	96	% Enzyme Activity (relative to DMSO controls) ([1]; 500 nM): 91.67%; % Enzyme Activity (relative to DMSO controls) ([2]; 500 nM): 58.24%; % Enzyme Activity (relative to DMSO controls) ([3]; 500 nM): 96.11%; % Enzyme Activity (relative to DMSO controls) ([4]; 500 nM): 82.30%; % Enzyme Activity (relative to DMSO controls) ([5]; 500 nM): 140.43%; % Enzyme Activity (relative to DMSO controls) ([6]; 500 nM): 102.90%; % Enzyme Activity (relative to DMSO controls) ([7]; 500 nM): 90.44%; % Enzyme Activity (relative to DMSO controls) ([8]; 500 nM): 95.95%
